Measurements from patent US6277829A, “Process for preparing of aqueous formulation for opthalmic use” (S.I.F.I. Societa Industria Farmaceutica Italiana S.p.A., priority 1999, dated 2001).
≈ marks a conversion by molar mass, not a printed value.

What was measured:
[1] = system: St. Pneumoniae ATCC 49619; test: In vitro antibacterial activity, MIC; type: cell-based; details: Streptococcus pneumoniae
Source text: (§1) In vitro bacteriostatic/bactericidal activity of azithromycin in different ophthalmic solutions has been evaluated as a function of ([H+]). Assessment of the activity it has been carried out by standardized method recommended by the National Committee for Clinical Laboratory Standards (NCCLS). In particular, three azithromycin solutions at different pH (6.5, 7.2, 7.8) in citrate-phosphate have been examined. Accordingly, three aliquots of Mueller-Hinton broth have been adjusted to the same pH of the azithromycin solutions (three) to be tested.
(§2) MIC values (μg/ml) have been measured by turbidity standard method after incubation of azithromycin aliquots, at the different pH, ranging from 18 to 24 h. Incubation for Staphylococcus spp. and Pseudomonas spp. needs aerobic conditions whereas Streptococcus spp. and Haernophilus spp. require partial anaerobic conditions during the period of incubation (5%, CO2).
(§3) Concentration of azithromycin able to inhibit the growth of the bacteria, after the period of incubation, is defined as the minimum inhibitory concentration (MIC).

St. Pryogenes ATCC 21547 = test: In vitro antibacterial activity, MIC; type: cell-based
Source text: as §1, §2, §3

H. influenzae ATCC 49247 = test: In vitro antibacterial activity, MBC; type: cell-based; details: Haemophilus influenzae
Description: as §1, with “In particular, three azithromycin solutions at different pH (6.5, 7.2, 7.8) in citrate-phosphate have been examined.” left out, “tested. […] Incubation for Staphylococcus spp. and Pseudomonas spp. needs aerobic conditions whereas Streptococcus spp. and Haernophilus spp. require partial anaerobic conditions during the period of incubation (5%, CO2).” for “tested.”

H. influenzae ATCC 9006 = test: In vitro antibacterial activity, MBC; type: cell-based; details: Haemophilus influenzae
Description: as §1, with “In particular, three azithromycin solutions at different pH (6.5, 7.2, 7.8) in citrate-phosphate have been examined.” left out, “tested. […] Incubation for Staphylococcus spp. and Pseudomonas spp. needs aerobic conditions whereas Streptococcus spp. and Haernophilus spp. require partial anaerobic conditions during the period of incubation (5%, CO2).” for “tested.”

[2] = system: Ps. aeruginosa ATCC 27853; test: In vitro antibacterial activity, MBC; type: cell-based; details: Pseudomonas aeruginosa
Description: as §1, with “In particular, three azithromycin solutions at different pH (6.5, 7.2, 7.8) in citrate-phosphate have been examined.” left out, “tested. […] Incubation for Staphylococcus spp. and Pseudomonas spp. needs aerobic conditions whereas Streptococcus spp. and Haernophilus spp. require partial anaerobic conditions during the period of incubation (5%, CO2).” for “tested.”

Ps. aeruginosa ATCC 9027 = test: In vitro antibacterial activity, MBC; type: cell-based; details: Pseudomonas aeruginosa
Description: as §1, with “In particular, three azithromycin solutions at different pH (6.5, 7.2, 7.8) in citrate-phosphate have been examined.” left out, “tested. […] Incubation for Staphylococcus spp. and Pseudomonas spp. needs aerobic conditions whereas Streptococcus spp. and Haernophilus spp. require partial anaerobic conditions during the period of incubation (5%, CO2).” for “tested.”

S. aureus ATCC 25923 = test: In vitro antibacterial activity, MBC; type: cell-based; details: Staphylococcus aureus
Description: as §1, with “In particular, three azithromycin solutions at different pH (6.5, 7.2, 7.8) in citrate-phosphate have been examined.” left out, “tested. […] Incubation for Staphylococcus spp. and Pseudomonas spp. needs aerobic conditions whereas Streptococcus spp. and Haernophilus spp. require partial anaerobic conditions during the period of incubation (5%, CO2).” for “tested.”

S. aureus ATCC 29213 = test: In vitro antibacterial activity, MBC; type: cell-based; details: Staphylococcus aureus
Description: as §1, with “In particular, three azithromycin solutions at different pH (6.5, 7.2, 7.8) in citrate-phosphate have been examined.” left out, “tested. […] Incubation for Staphylococcus spp. and Pseudomonas spp. needs aerobic conditions whereas Streptococcus spp. and Haernophilus spp. require partial anaerobic conditions during the period of incubation (5%, CO2).” for “tested.”

S. aureus ATCC 6538P = test: In vitro antibacterial activity, MBC; type: cell-based; details: Staphylococcus aureus, ATCC6538P
Description: as §1, with “In particular, three azithromycin solutions at different pH (6.5, 7.2, 7.8) in citrate-phosphate have been examined.” left out, “tested. […] Incubation for Staphylococcus spp. and Pseudomonas spp. needs aerobic conditions whereas Streptococcus spp. and Haernophilus spp. require partial anaerobic conditions during the period of incubation (5%, CO2).” for “tested.”

[3] = system: S. epidermidis ATCC 12228; test: In vitro antibacterial activity, MBC; type: cell-based; details: Staphylococcus epidermidis
Description: as §1, with “In particular, three azithromycin solutions at different pH (6.5, 7.2, 7.8) in citrate-phosphate have been examined.” left out, “tested. […] Incubation for Staphylococcus spp. and Pseudomonas spp. needs aerobic conditions whereas Streptococcus spp. and Haernophilus spp. require partial anaerobic conditions during the period of incubation (5%, CO2).” for “tested.”

[4] = system: St. Pneumoniae ATCC 49619; test: In vitro antibacterial activity, MBC; type: cell-based; details: Streptococcus pneumoniae
Description: as §1, with “In particular, three azithromycin solutions at different pH (6.5, 7.2, 7.8) in citrate-phosphate have been examined.” left out, “tested. […] Incubation for Staphylococcus spp. and Pseudomonas spp. needs aerobic conditions whereas Streptococcus spp. and Haernophilus spp. require partial anaerobic conditions during the period of incubation (5%, CO2).” for “tested.”

St. Pyogenes ATCC 21547 = test: In vitro antibacterial activity, MBC; type: cell-based; details: Streptococcus pyogenes
Description: as §1, with “In particular, three azithromycin solutions at different pH (6.5, 7.2, 7.8) in citrate-phosphate have been examined.” left out, “tested. […] Incubation for Staphylococcus spp. and Pseudomonas spp. needs aerobic conditions whereas Streptococcus spp. and Haernophilus spp. require partial anaerobic conditions during the period of incubation (5%, CO2).” for “tested.”

[5] = background statement; cited from earlier work
gram-negative organisms = details: some gram-negative organisms, compared with other macrolides; cited from earlier work
gram-positive organisms = details: compared with other macrolides; cited from earlier work
[6] = cited from earlier work

CC[C@H]1OC(=O)[C@H](C)[C@@H](O[C@H]2C[C@@](C)(OC)[C@@H](O)[C@H](C)O2)[C@H](C)[C@@H](O[C@@H]2O[C@H](C)C[C@H](N(C)C)[C@H]2O)[C@](C)(O)C[C@@H](C)CN(C)[C@H](C)[C@@H](O)[C@]1(C)O [azithromycin] gave an MIC ([1]; ATCC49619, pH 7.2) of 0.25 µg/mL (≈ 0.334 µM), an MIC ([1]; ATCC49619, pH 7.8) of 0.15 µg/mL (≈ 0.2 µM) and an MIC (St. Pryogenes ATCC 21547; pH 6.5) of 1.5 µg/mL (≈ 2 µM). For the same molecule, the MIC (St. Pryogenes ATCC 21547; pH 7.2) was 0.37 µg/mL (≈ 0.494 µM), the MIC (St. Pryogenes ATCC 21547; pH 7.8) was 0.2 µg/mL (≈ 0.267 µM) and the MBC (H. influenzae ATCC 49247; ATCC49247, pH 6.5) was 7 µg/mL (≈ 9.35 µM). It also gave an MBC (H. influenzae ATCC 49247; ATCC49247, pH 7.2) of 3.5 µg/mL (≈ 4.67 µM), an MBC (H. influenzae ATCC 49247; ATCC49247, pH 7.5) of 3 µg/mL (≈ 4.01 µM) and an MBC (H. influenzae ATCC 9006; ATCC9006, pH 6.5) of 6 µg/mL (≈ 8.01 µM). It also gave an MBC (H. influenzae ATCC 9006; ATCC9006, pH 7.2) of 3.5 µg/mL (≈ 4.67 µM), an MBC (H. influenzae ATCC 9006; ATCC9006, pH 7.5) of 3.5 µg/mL (≈ 4.67 µM) and an MBC ([2]; ATCC27853, pH 7.2) of 100 µg/mL (≈ 134 µM). It also gave an MBC ([2]; ATCC27853, pH 7.5) of 50 µg/mL (≈ 66.8 µM), an MBC (Ps. aeruginosa ATCC 9027; ATCC9027, pH 7.2) greater than 200 µg/mL and an MBC (Ps. aeruginosa ATCC 9027; ATCC9027, pH 7.5) of 200 µg/mL (≈ 267 µM). For the same molecule, the MBC (S. aureus ATCC 25923; ATCC25923, pH 6.5) was greater than 4 µg/mL, the MBC (S. aureus ATCC 25923; ATCC25923, pH 7.2) was 3.25 µg/mL (≈ 4.34 µM) and the MBC (S. aureus ATCC 25923; ATCC25923, pH 7.5) was 2 µg/mL (≈ 2.67 µM). For the same molecule, the MBC (S. aureus ATCC 29213; ATCC29213, pH 6.5) was greater than 4 µg/mL, the MBC (S. aureus ATCC 29213; ATCC29213, pH 7.2) was greater than 4 µg/mL and the MBC (S. aureus ATCC 29213; ATCC29213, pH 7.5) was 2.25 µg/mL (≈ 3 µM). The MBC (S. aureus ATCC 6538P; pH 6.5) was greater than 4 µg/mL, the MBC (S. aureus ATCC 6538P; pH 7.2) was 2.5 µg/mL (≈ 3.34 µM) and the MBC (S. aureus ATCC 6538P; pH 7.5) was 1.75 µg/mL (≈ 2.34 µM). It also gave an MBC ([3]; ATCC12228, pH 6.5) greater than 4 µg/mL, an MBC ([3]; ATCC12228, pH 7.2) of 3 µg/mL (≈ 4.01 µM) and an MBC ([3]; ATCC12228, pH 7.5) of 2 µg/mL (≈ 2.67 µM). For the same molecule, the MBC ([4]; ATCC49619, pH 6.5) was 3 µg/mL (≈ 4.01 µM), the MBC ([4]; ATCC49619, pH 7.2) was 0.45 µg/mL (≈ 0.601 µM) and the MBC ([4]; ATCC49619, pH 7.5) was 0.3 µg/mL (≈ 0.401 µM). The MBC (St. Pyogenes ATCC 21547; ATCC21547, pH 6.5) was 3 µg/mL (≈ 4.01 µM), the MBC (St. Pyogenes ATCC 21547; ATCC21547, pH 7.2) was 0.6 µg/mL (≈ 0.801 µM) and the MBC (St. Pyogenes ATCC 21547; ATCC21547, pH 7.5) was 0.35 µg/mL (≈ 0.467 µM). The water solubility [5] was “poor water solubility”, the antibacterial activity (gram-negative organisms) was “superior antibacterial activity” and the antibacterial efficacy (gram-positive organisms) was “same efficacy”. The “intracellular distribution into specific tissues” value ([6]; after oral administration) was “extensive intracellular distribution” and the Half-life ([6]; in vivo) was “extremely elevated”.
